Test results from patent publication US20250282768A1 (Janssen Pharmaceutica NV, priority 2022, published 2025).

tested on: p-IKKa levels in L363 (NIK translocated multiple myeloma) cells; assay: Assay 2: Effect of compounds on p-IKKa levels in L363 (NIK translocated multiple myeloma) cells; type: cell-based; conditions: Homo sapiens, L-363, 6 h, read-out: Assay 2 IC50 (nM), p-IKKa (Ser 176/180) in BAFF stimulated L363 cells with MG132, 6 h; average if tested more than once
Method in brief: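 Read-out is p-IKKa Ser176/180 by AlphaLISA SureFire in lysates. Cells were BAFF-primed (250 ng/ml) overnight or left unstimulated, then exposed 6 h at 37 °C to compound with MG132 (10 μM), 0.3% DMSO. IC50 from sigmoidal curve fit, normalized between stimulated and unstimulated controls.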

SMILES	IC50 [nM]
CN1CC[C@@](O)(c2cc(-c3cccc(-c4ccnc(Nc5nn(C)c6c5CNC6)n4)c3)no2)C1=O [Example 418, (R)-3-Hydroxy-1-methyl-3-(3-(3-(2-((1-methyl-1,4,5,6-tetrahydropyrrolo[3,4-c]pyrazol-3-yl)amino)pyrimidin-4-yl)phenyl)isoxazol-5-yl)pyrrolidin-2-one]	> 500
CN1CC[C@@](O)(c2cc(-c3cccc(-c4ccnc(Nc5cnn6c5CNCC6)n4)c3)no2)C1=O [Example 419, (R)-3-Hydroxy-1-methyl-3-(3-(3-(2-((4,5,6,7-tetrahydropyrazolo[1,5-a]pyrazin-3-yl)amino)pyrimidin-4-yl)phenyl)isoxazol-5-yl)pyrrolidin-2-one]	> 500
CN1CC[C@@](O)(c2cc(-c3cccc(-c4ccnc(Nc5nn(C)c6ccncc56)n4)c3)no2)C1=O [Example 420, (R)-3-Hydroxy-1-methyl-3-(3-(3-(2-((1-methyl-1H-pyrazolo[4,3-c]pyridin-3-yl)amino)pyrimidin-4-yl)phenyl)isoxazol-5-yl)pyrrolidin-2-one]	> 500
CN1CC[C@@](O)(c2cc(-c3cccc(-c4ccnc(Nc5nn(C)c6ncccc56)n4)c3)no2)C1=O [Example 421, (R)-3-Hydroxy-1-methyl-3-(3-(3-(2-((1-methyl-1H-pyrazolo[3,4-b]pyridin-3-yl)amino)pyrimidin-4-yl)phenyl)isoxazol-5-yl)pyrrolidin-2-one]	> 500
CN1CC[C@@](O)(c2cc(-c3cccc(-c4ccnc(Nc5nn(C)c6nccnc56)n4)c3)no2)C1=O [Example 422, (R)-3-Hydroxy-1-methyl-3-(3-(3-(2-((1-methyl-1H-pyrazolo[3,4-b]pyrazin-3-yl)amino)pyrimidin-4-yl)phenyl)isoxazol-5-yl)pyrrolidin-2-one]	> 500
CN1CC[C@@](O)(c2cc(-c3cccc(-c4nc(Nc5cnn(C)c5)ncc4F)c3)no2)C1=O [Example 423, (R)-3-(3-(3-(5-Fluoro-2-((1-methyl-1H-pyrazol-4-yl)amino)pyrimidin-4-yl)phenyl)isoxazol-5-yl)-3-hydroxy-1-methylpyrrolidin-2-one]	> 500
CN1CC[C@@](O)(c2cc(-c3cccc(-c4nc(Nc5nn(C)cc5C#N)ncc4F)c3)no2)C1=O [Example 424, (R)-3-((5-Fluoro-4-(3-(5-(3-hydroxy-1-methyl-2-oxopyrrolidin-3-yl)isoxazol-3-yl)phenyl)pyrimidin-2-yl)amino)-1-methyl-1H-pyrazole-4-carbonitrile]	> 500
CN1CC[C@@](O)(c2cc(-c3cccc(-c4nc(Nc5ccn(C)n5)ncc4F)c3)no2)C1=O [Example 425, (R)-3-(3-(3-(5-Fluoro-2-((1-methyl-1H-pyrazol-3-yl)amino)pyrimidin-4-yl)phenyl)isoxazol-5-yl)-3-hydroxy-1-methylpyrrolidin-2-one]	> 500
CN1CC[C@@](O)(c2cc(-c3cccc(-c4ccnc(Nc5ccn(C)n5)n4)c3F)no2)C1=O [Example 426, (R)-3-(3-(2-Fluoro-3-(2-((1-methyl-1H-pyrazol-3-yl)amino)pyrimidin-4-yl)phenyl)isoxazol-5-yl)-3-hydroxy-1-methylpyrrolidin-2-one]	> 500
CN1CC[C@@](O)(c2cc(-c3cccc(-c4ccnc(Nc5cnn(C)c5)n4)c3F)no2)C1=O [Example 427, (R)-3-(3-(2-Fluoro-3-(2-((1-methyl-1H-pyrazol-4-yl)amino)pyrimidin-4-yl)phenyl)isoxazol-5-yl)-3-hydroxy-1-methylpyrrolidin-2-one]	> 500
CN(C)Cc1cc(Nc2nccc(-c3cccc(-c4cc([C@]5(O)CCN(C)C5=O)on4)n3)n2)nn1C [Example 428, (R)-3-(3-(6-(2-((5-((Dimethylamino)methyl)-1-methyl-1H-pyrazol-3-yl)amino)pyrimidin-4-yl)pyridin-2-yl)isoxazol-5-yl)-3-hydroxy-1-methylpyrrolidin-2-one]	50 to 500
CN1CC[C@@](O)(c2cc(-c3cccc(-c4ccnc(Nc5cc6n(n5)CCNC6)n4)n3)no2)C1=O [Example 430, (R)-3-Hydroxy-1-methyl-3-(3-(6-(2-((4,5,6,7-tetrahydropyrazolo[1,5-a]pyrazin-2-yl)amino)pyrimidin-4-yl)pyridin-2-yl)isoxazol-5-yl)pyrrolidin-2-one]	50 to 500
CN1CC[C@@](O)(c2cc(-c3cccc(-c4ccnc(Nc5cc6n(n5)CCN(CC(F)(F)F)C6)n4)n3)no2)C1=O [Example 431, (R)-3-Hydroxy-1-methyl-3-(3-(6-(2-((5-(2,2,2-trifluoroethyl)-4,5,6,7-tetrahydropyrazolo[1,5-a]pyrazin-2-yl)amino)pyrimidin-4-yl)pyridin-2-yl)isoxazol-5-yl)pyrrolidin-2-one]	50 to 500
CN1CC[C@@](O)(c2cc(-c3cccc(-c4ccnc(Nc5cc6n(n5)CCOC6)n4)n3)no2)C1=O [Example 432, (R)-3-(3-(6-(2-((6,7-Dihydro-4H-pyrazolo[5,1-c][1,4]oxazin-2-yl)amino)pyrimidin-4-yl)pyridin-2-yl)isoxazol-5-yl)-3-hydroxy-1-methylpyrrolidin-2-one]	< 50
CN1CC[C@@](O)(c2cc(-c3cccc(-c4ccnc(Nc5cnn6c5CN(CC5CC5)CC6)n4)n3)no2)C1=O [Example 433, (R)-3-(3-(6-(2-((5-(Cyclopropylmethyl)-4,5,6,7-tetrahydropyrazolo[1,5-a]pyrazin-3-yl)amino)pyrimidin-4-yl)pyridin-2-yl)isoxazol-5-yl)-3-hydroxy-1-methylpyrrolidin-2-one]	< 50
CN1CC[C@@](O)(c2cc(-c3cccc(-c4ccnc(Nc5cc(CN6CCOCC6)n(C)n5)n4)n3)no2)C1=O [Example 434, (R)-3-Hydroxy-1-methyl-3-(3-(6-(2-((1-methyl-5-(morpholinomethyl)-1H-pyrazol-3-yl)amino)pyrimidin-4-yl)pyridin-2-yl)isoxazol-5-yl)pyrrolidin-2-one]	50 to 500
CN1CC[C@@](O)(c2cc(-c3cccc(-c4ccnc(NCCC(F)(F)F)n4)n3)no2)C1=O [Example 435, (R)-3-Hydroxy-1-methyl-3-(3-(6-(2-((3,3,3-trifluoropropyl)amino)pyrimidin-4-yl)pyridin-2-yl)isoxazol-5-yl)pyrrolidin-2-one]	50 to 500
CN1CC[C@@](O)(c2cc(-c3cccc(-c4ccnc(N[C@H]5CCOC5)n4)n3)no2)C1=O [Example 436, (R)-3-Hydroxy-1-methyl-3-(3-(6-(2-(((S)-tetrahydrofuran-3-yl)amino)pyrimidin-4-yl)pyridin-2-yl)isoxazol-5-yl)pyrrolidin-2-one]	50 to 500
CN1CC[C@@](O)(c2cc(-c3cccc(-c4ccnc(NC5CC(F)(F)C5)n4)n3)no2)C1=O [Example 439, (R)-3-(3-(6-(2-((3,3-Difluorocyclobutyl)amino)pyrimidin-4-yl)pyridin-2-yl)isoxazol-5-yl)-3-hydroxy-1-methylpyrrolidin-2-one]	50 to 500
COC[C@H](C)Nc1nccc(-c2cccc(-c3cc([C@]4(O)CCN(C)C4=O)on3)n2)n1 [Example 440, (R)-3-Hydroxy-3-(3-(6-(2-(((S)-1-methoxypropan-2-yl)amino)pyrimidin-4-yl)pyridin-2-yl)isoxazol-5-yl)-1-methylpyrrolidin-2-one]	50 to 500
C[C@H](Nc1nccc(-c2cccc(-c3cc([C@]4(O)CCN(C)C4=O)on3)n2)n1)C1CC1 [Example 441, (R)-3-(3-(6-(2-(((S)-1-Cyclopropylethyl)amino)pyrimidin-4-yl)pyridin-2-yl)isoxazol-5-yl)-3-hydroxy-1-methylpyrrolidin-2-one]	> 500
CN1CC[C@@](O)(c2cc(-c3cccc(-c4ccnc(NC5(C)CC5)n4)n3)no2)C1=O [Example 442, (R)-3-Hydroxy-1-methyl-3-(3-(6-(2-((1-methylcyclopropyl)amino)pyrimidin-4-yl)pyridin-2-yl)isoxazol-5-yl)pyrrolidin-2-one]	50 to 500
CN1CC[C@@](O)(c2cc(-c3cccc(-c4ccnc(NC5(C6CC6)CC5)n4)n3)no2)C1=O [Example 443, (R)-3-(3-(6-(2-([1,1′-Bi(cyclopropan)]-1-ylamino)pyrimidin-4-yl)pyridin-2-yl)isoxazol-5-yl)-3-hydroxy-1-methylpyrrolidin-2-one]	50 to 500
CN1CC[C@@](O)(c2cc(-c3cccc(-c4ccnc(Nc5cnn6c5OCC(C)(C)C6)n4)n3)no2)C1=O [Example 444, (R)-3-(3-(6-(2-((6,6-Dimethyl-6,7-dihydro-5H-pyrazolo[5,1-b][1,3]oxazin-3-yl)amino)pyrimidin-4-yl)pyridin-2-yl)isoxazol-5-yl)-3-hydroxy-1-methylpyrrolidin-2-one]	< 50
CN1CC[C@@](O)(c2cc(-c3cccc(-c4ccnc(NC5CC(C(F)(F)F)C5)n4)n3)no2)C1=O (stereo partly drawn) [Example 445, (R)-3-Hydroxy-1-methyl-3-(3-(6-(2-((3-(trifluoromethyl)cyclobutyl)amino)pyrimidin-4-yl)pyridin-2-yl)isoxazol-5-yl)pyrrolidin-2-one]	> 500
CN1CC[C@@](O)(c2cc(-c3cccc(-c4ccnc(NC5CSC5)n4)n3)no2)C1=O [Example 446, (R)-3-Hydroxy-1-methyl-3-(3-(6-(2-(thietan-3-ylamino)pyrimidin-4-yl)pyridin-2-yl)isoxaozl-5-yl)pyrrolidin-2-one]	50 to 500
CN1CC[C@@](O)(c2cc(-c3cccc(-c4ccnc(NC5CCN(S(=O)(=O)C6CC6)CC5)n4)n3)no2)C1=O [Example 447, (R)-3-(3-(6-(2-((1-(Cyclopropylsulfonyl)piperidin-4-yl)amino)pyrimidin-4-yl)pyridin-2-yl)isoxazol-5-yl)-3-hydroxy-1-methylpyrrolidin-2-one]	50 to 500
CO[C@@H]1CCC[C@H](Nc2nccc(-c3cccc(-c4cc([C@]5(O)CCN(C)C5=O)on4)n3)n2)C1 [Example 449, (R)-3-Hydroxy-3-(3-(6-(2-(((1S,3R)-3-methoxycyclohexyl)amino)pyrimidin-4-yl)pyridin-2-yl)isoxazol-5-yl)-1-methylpyrrolidin-2-one]	50 to 500
